Activity calls are given as the source filed them. The calls are words filed in the database; no cut-off is given here.
How the values were obtained:
HeLa = test: Cytotoxicity against human HeLa cells; type: functional, cell-based
[1] = biological target: 5-hydroxytryptamine receptor 2B (Homo sapiens, UniProt P41595); test: Inhibition of human 5HT2B receptor expressed in cos-7 cells assessed as [3H]5-HT […] after 120 mins; type: cell-based
[2] = biological target: T1, 5-hydroxytryptamine receptor 3A (Homo sapiens) (UniProt P46098); test: Inhibition of 5HT3 receptor at 25 uM
T1 sequence (whole entry): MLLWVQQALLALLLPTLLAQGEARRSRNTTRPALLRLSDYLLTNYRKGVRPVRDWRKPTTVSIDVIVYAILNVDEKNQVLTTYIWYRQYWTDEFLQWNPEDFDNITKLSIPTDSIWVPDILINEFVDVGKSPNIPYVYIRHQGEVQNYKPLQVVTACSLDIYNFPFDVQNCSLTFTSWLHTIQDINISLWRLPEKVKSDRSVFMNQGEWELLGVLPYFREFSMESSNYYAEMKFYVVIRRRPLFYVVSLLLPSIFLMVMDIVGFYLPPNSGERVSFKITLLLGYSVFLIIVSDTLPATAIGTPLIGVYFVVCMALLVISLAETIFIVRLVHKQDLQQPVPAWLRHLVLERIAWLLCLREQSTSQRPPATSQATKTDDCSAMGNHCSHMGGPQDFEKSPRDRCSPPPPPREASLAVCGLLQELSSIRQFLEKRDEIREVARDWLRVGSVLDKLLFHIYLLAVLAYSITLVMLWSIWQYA

[3] = biological target: T2, 5-hydroxytryptamine receptor 1A (Homo sapiens) (UniProt P08908); test: Inhibition of 5HT1A receptor at 25 uM
T2 sequence (whole entry): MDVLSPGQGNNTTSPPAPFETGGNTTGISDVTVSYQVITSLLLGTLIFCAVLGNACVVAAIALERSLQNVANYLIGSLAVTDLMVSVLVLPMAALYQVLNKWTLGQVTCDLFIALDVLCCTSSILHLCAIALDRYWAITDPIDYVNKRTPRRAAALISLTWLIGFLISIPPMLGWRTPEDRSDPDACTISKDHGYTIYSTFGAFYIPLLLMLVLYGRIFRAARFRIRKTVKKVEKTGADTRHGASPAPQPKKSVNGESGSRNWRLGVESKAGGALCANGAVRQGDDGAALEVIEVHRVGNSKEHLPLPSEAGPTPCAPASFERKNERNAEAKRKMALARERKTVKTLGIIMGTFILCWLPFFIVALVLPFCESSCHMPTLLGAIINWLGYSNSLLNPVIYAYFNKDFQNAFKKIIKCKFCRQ

Sequence of 5-hydroxytryptamine receptor 2B (P41595 whole entry): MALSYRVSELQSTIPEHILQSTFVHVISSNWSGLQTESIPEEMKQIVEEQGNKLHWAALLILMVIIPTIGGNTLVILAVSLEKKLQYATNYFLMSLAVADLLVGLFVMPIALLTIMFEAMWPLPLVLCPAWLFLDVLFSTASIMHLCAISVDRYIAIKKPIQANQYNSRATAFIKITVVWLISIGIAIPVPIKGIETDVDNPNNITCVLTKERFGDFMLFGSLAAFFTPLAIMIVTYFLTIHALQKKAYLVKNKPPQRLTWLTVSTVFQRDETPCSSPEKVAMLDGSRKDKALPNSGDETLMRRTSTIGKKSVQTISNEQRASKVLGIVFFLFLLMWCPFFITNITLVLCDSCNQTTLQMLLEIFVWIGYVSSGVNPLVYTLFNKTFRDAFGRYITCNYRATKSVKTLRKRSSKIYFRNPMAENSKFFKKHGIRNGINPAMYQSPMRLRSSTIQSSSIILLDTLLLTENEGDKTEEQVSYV

## CC/C=C1\C[C@H]2CNc3c(OC)cccc3C(=O)N2C1 [USABAMYCIN A]
HeLa
  IC50: 107 µM
[1]
  IC50: 12.4 µM
  Ki: 7.89 µM
[2]
  inhibition: inactive
[3]
  inhibition: inactive

## CC/C=C1\C[C@H]2CNc3ccccc3C(=O)N2C1 [USABAMYCIN C]
HeLa
  IC50: 102 µM
[1]
  IC50: 8.24 µM
  Ki: 5.24 µM
[2]
  inhibition: inactive
[3]
  inhibition: inactive

## C/C=C1\C[C@H]2CNc3c(OC)cccc3C(=O)N2C1 [USABAMYCIN B]
HeLa
  IC50: 104 µM
[1]
  IC50: 8.45 µM
  Ki: 5.38 µM
[2]
  inhibition: inactive
[3]
  inhibition: inactive
